Entries after “also recorded” stand apart in the source; their conditions may differ.

What all share (format): cell-based, human
Test [1] deals with K562 cells. Briefly: Erythroid differentiation: hemoglobin production in K562 cells.
For another test, the system named is p210^Bcr-Abl. Briefly: Western blot of p210 Bcr-Abl expression in K562 cells. The conditions noted are these: extracts 500 μg/ml and 250 μg/ml, AG957 10 μM and 20 μM, 48 hours, Western blot (FIGS. 3A-3B). (Immunoblotting shows a protein as a band on a membrane.)
The subject of another test is PARP. The test is described as follows: PARP cleavage Western blot in K562 cells. The conditions noted are these: 500 μg/ml and 250 μg/ml, 48 hours, Western blot (FIGS. 2A-2B).
Test [2] concerns K562 cells. The test is described as follows: Apostain ELISA assay (DNA condensation, apoptosis) in K562 cells. The note with it: 48 h; for Relative Apostain Value: K562, solvent-treated sample = 1. On the technique in general: ELISA stands for enzyme-linked immunosorbent assay.

On to `CCCC(=O)O` [Butyric Acid, butyric acid], for which, in the test on K562 cells [1] (1 mM, day 5, K562, solvent-treated sample = 1.0), the “Relative Hemoglobin” value is on record as 9.4. Moreover, the “Induction of hemoglobin production / erythroid differentiation in K562 cells (in words)” value in the test on K562 cells [1] (day 5 post-treatment, versus DMSO-treated cells) is “active in inducing hemoglobin expression”.
Turning to `COC(=O)c1ccc(NCc2cc(O)ccc2O)cc1` [AG957], in the test with p210^Bcr-Abl, the “Effect on p210^Bcr-Abl expression levels in K562 cells (in words)” value is “reduction in Bcr-Abl protein levels”. In addition, the “Cleavage of PARP in K562 cells (in words)” value in the test on PARP is on record as “significantly activates PARP cleavage; also recorded: significant cleavage of PARP”. The entries for the “Relative Apostain Value” in the test on K562 cells [2] (10 μM) and in the test on K562 cells [2] (20 μM) were 6.2 and 3.9, respectively. The “Induction of apoptosis / increase in DNA condensation in K562 cells (in words)” value in the test with K562 cells [2] (extracts 250 and 500 μg/ml, AG957 10 μM) is “significantly induced an increase in DNA condensation”.
